Data reported in ChEMBL document CHEMBL4371076 (J Med Chem, 2019).
Activity calls are given as the source filed them. The calls are words filed in the database; no cut-off is given here.

Legend:
Mus musculus [1] = experiment: Analgesic activity in CD1 mouse model of formalin-induced nociception assessed as reduction in formalin-evoked paw flinching/licking response during first phase at 30 mg/kg, po pretreated for 30 mins followed by formalin treatment and measured during first 5 mins post formalin injection; assay type: functional, organism-based
[2] = Plasma concentration in CD1 mouse model of formalin-induced nociception at 30 mg/kg, po; assay type: ADME, organism-based; conditions: read-out: Cp, in vivo
[3] = Unbound plasma concentration in CD1 mouse model of formalin-induced nociception at 30 mg/kg, po; assay type: ADME, organism-based; conditions: in vivo
[4] = Drug uptake in DRG neurons of CD1 mouse model of formalin-induced nociception at 30 mg/kg, po; assay type: ADME, organism-based, DRG neuron; conditions: in vivo, read-out: Drug uptake
[5] = Unbound drug level in DRG neurons of CD1 mouse model of formalin-induced nociception at 30 mg/kg, po; assay type: ADME, organism-based, DRG neuron; conditions: in vivo
[6] = target: T1, Sodium channel protein type 9 subunit alpha (Homo sapiens, UniProt Q15858); experiment: Inhibition of recombinant human Nav1.7 expressed in HEK293 cells at -70 mV holding potential by patch clamp electrophysiology method; assay type: cell-based
T1 sequence (Q15858 whole entry): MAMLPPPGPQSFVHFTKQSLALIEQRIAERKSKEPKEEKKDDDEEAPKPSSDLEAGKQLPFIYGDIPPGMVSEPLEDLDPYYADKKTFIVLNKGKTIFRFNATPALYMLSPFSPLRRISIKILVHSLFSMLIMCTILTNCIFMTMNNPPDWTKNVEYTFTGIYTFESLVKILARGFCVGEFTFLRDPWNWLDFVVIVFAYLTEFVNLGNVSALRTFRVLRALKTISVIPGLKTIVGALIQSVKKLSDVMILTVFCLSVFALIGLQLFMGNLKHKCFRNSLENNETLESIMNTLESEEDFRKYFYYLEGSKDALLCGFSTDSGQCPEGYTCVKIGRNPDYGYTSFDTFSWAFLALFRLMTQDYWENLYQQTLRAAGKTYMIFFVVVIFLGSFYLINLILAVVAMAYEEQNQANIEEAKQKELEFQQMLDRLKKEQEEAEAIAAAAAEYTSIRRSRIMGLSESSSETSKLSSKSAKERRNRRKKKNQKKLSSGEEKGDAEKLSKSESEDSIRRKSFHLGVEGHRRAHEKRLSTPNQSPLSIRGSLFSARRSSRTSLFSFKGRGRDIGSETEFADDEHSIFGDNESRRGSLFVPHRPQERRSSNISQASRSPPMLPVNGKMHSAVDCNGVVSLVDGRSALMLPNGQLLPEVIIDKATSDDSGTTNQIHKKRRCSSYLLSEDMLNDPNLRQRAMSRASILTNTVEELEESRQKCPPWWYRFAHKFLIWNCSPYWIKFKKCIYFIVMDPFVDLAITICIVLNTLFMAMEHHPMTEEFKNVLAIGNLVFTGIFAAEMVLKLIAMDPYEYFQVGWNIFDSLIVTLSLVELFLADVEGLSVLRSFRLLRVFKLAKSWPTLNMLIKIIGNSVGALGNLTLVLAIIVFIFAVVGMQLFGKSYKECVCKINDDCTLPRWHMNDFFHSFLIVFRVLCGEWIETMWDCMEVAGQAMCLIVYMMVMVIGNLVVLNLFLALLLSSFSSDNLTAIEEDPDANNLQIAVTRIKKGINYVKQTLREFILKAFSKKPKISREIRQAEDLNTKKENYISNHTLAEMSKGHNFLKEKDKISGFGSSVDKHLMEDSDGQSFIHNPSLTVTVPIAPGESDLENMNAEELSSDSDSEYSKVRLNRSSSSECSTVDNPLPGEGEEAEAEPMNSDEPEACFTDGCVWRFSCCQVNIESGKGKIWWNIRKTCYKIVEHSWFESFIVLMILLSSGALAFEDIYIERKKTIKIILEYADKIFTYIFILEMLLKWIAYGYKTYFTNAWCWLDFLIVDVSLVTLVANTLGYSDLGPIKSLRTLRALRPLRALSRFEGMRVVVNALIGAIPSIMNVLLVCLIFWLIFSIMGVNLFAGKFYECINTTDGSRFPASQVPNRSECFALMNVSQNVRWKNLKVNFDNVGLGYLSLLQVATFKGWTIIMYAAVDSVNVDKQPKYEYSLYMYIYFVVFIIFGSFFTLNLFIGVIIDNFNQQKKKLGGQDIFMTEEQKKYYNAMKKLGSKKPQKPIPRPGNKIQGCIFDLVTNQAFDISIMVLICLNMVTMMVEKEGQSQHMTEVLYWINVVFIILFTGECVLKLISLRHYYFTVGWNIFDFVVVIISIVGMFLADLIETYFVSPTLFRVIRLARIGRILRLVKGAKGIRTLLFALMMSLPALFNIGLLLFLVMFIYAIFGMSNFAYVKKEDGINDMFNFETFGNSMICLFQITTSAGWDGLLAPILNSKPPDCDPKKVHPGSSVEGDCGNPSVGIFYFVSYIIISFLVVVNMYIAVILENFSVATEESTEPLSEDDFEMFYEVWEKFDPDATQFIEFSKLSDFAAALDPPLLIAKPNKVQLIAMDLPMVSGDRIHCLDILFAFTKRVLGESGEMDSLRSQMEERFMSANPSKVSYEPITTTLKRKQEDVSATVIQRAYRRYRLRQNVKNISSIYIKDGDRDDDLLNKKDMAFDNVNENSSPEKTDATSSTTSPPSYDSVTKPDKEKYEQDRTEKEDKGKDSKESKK

[7] = Metabolic stability in human liver microsomes assessed as parent compound remaining at 0.5 uM after 10 mins; assay type: ADME, Microsome; conditions: read-out: Stability
[8] = Metabolic stability in rat liver microsomes assessed as parent compound remaining at 0.5 uM after 10 mins; assay type: ADME, Microsome; conditions: read-out: Stability
[9] = Fraction unbound in human plasma; assay type: ADME, cell-free
[10] = Fraction unbound in mouse plasma; assay type: ADME, cell-free
[11] = Permeability of the compound at pH 5.5 by PAMPA; assay type: ADME; conditions: read-out: permeability
[12] = Permeability of the compound at pH 7.4 by PAMPA; assay type: ADME; conditions: read-out: permeability
[13] = Permeability from apical to basolateral side in human Caco2 cells; assay type: ADME, cell-based; conditions: Caco-2, read-out: permeability
[14] = Permeability from basolateral to apical side in human Caco2 cells; assay type: ADME, cell-based; conditions: Caco-2, read-out: permeability
[15] = Efflux ratio of permeability in human Caco2 cells; assay type: ADME, cell-based; conditions: Caco-2
Cytochrome P450 2B6 [16] = target: T2, Cytochrome P450 2B6 (Homo sapiens, UniProt P20813); experiment: Inhibition of CYP2B6 in human liver microsomes; assay type: ADME; conditions: human, microsomes
T2 sequence (P20813 whole entry): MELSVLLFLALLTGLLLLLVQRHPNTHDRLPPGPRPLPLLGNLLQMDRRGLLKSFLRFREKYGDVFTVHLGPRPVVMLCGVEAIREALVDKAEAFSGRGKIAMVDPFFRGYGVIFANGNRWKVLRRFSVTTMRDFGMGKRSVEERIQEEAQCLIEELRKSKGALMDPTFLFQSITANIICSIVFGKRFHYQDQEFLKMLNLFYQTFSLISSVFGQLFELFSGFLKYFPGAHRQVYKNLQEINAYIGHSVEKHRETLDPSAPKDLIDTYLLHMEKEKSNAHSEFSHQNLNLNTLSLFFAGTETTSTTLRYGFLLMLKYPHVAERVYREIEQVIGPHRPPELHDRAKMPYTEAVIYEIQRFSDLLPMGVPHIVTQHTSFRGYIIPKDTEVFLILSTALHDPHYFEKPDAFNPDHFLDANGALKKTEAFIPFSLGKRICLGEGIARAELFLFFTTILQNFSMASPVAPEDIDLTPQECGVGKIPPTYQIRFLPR

Cytochrome P450 2C8 [17] = target: T3, Cytochrome P450 2C8 (Homo sapiens, UniProt P10632); experiment: Inhibition of CYP2C8 in human liver microsomes; assay type: ADME; conditions: human, microsomes
T3 sequence (P10632 whole entry): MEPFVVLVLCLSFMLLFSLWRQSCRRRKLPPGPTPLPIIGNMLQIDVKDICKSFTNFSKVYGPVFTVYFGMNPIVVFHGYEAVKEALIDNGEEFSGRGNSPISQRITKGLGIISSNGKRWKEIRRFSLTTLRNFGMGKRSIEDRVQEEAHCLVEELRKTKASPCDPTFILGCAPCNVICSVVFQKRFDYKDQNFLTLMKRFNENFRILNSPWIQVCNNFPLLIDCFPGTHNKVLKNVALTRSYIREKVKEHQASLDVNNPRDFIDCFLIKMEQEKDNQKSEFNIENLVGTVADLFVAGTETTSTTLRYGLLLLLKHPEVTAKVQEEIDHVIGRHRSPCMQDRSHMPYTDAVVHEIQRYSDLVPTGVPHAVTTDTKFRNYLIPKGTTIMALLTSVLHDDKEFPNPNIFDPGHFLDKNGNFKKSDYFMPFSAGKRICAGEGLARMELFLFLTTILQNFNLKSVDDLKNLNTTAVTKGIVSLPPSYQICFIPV

Cytochrome P450 2C9 [18] = target: T4, Cytochrome P450 2C9 (Homo sapiens, UniProt P11712); experiment: Inhibition of CYP2C9 in human liver microsomes; assay type: ADME; conditions: human, microsomes
Cytochrome P450 2C19 [19] = target: T5, Cytochrome P450 2C19 (Homo sapiens, UniProt P33261); experiment: Inhibition of CYP2C19 in human liver microsomes; assay type: ADME; conditions: human, microsomes
T5 sequence (P33261 whole entry): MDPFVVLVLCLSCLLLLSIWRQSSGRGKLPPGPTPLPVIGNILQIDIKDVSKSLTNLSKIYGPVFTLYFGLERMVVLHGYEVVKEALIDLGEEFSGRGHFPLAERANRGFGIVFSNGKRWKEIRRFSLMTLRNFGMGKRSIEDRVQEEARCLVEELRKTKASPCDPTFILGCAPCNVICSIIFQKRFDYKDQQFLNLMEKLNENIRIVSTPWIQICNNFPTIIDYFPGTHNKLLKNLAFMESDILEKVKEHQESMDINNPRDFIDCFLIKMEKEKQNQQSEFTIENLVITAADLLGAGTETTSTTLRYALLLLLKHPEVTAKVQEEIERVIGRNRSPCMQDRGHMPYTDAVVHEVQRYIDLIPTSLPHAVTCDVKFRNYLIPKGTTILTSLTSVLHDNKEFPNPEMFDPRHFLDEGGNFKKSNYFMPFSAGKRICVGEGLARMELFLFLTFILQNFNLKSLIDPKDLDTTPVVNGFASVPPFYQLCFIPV

Cytochrome P450 2D6 [20] = target: T6, Cytochrome P450 2D6 (Homo sapiens, UniProt P10635); experiment: Inhibition of CYP2D6 in human liver microsomes; assay type: ADME; conditions: human, microsomes
T6 sequence (P10635 whole entry): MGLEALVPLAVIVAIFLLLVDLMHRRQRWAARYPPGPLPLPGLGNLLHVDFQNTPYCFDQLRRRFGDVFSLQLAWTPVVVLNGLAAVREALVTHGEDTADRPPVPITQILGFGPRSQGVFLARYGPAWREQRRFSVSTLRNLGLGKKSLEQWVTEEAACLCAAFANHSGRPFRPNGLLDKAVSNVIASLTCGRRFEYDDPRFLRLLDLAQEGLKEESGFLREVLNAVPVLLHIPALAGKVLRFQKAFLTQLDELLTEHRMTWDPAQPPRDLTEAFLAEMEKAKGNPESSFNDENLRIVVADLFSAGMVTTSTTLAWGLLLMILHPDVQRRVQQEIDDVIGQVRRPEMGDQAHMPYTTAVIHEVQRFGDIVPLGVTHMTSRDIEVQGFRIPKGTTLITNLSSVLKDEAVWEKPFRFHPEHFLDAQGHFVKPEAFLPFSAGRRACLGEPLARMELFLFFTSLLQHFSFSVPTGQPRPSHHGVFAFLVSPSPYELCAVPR

Cytochrome P450 3A4 [21] = target: T7, Cytochrome P450 3A4 (Homo sapiens, UniProt P08684); experiment: Inhibition of CYP3A4 in human liver microsomes; assay type: ADME; conditions: human, microsomes
Cytochrome P450 2B6 [22] = target: T2, Cytochrome P450 2B6; experiment: Time-dependant inhibition of CYP2B6 in human liver microsomes; assay type: ADME
Cytochrome P450 2C8 [23] = target: T3, Cytochrome P450 2C8; experiment: Time-dependant inhibition of CYP2C8 in human liver microsomes; assay type: ADME
Cytochrome P450 2C9 [24] = target: T4, Cytochrome P450 2C9; experiment: Time-dependant inhibition of CYP2C9 in human liver microsomes; assay type: ADME
Cytochrome P450 2C19 [25] = target: T5, Cytochrome P450 2C19; experiment: Time-dependant inhibition of CYP2C19 in human liver microsomes; assay type: ADME
Cytochrome P450 2D6 [26] = target: T6, Cytochrome P450 2D6; experiment: Time-dependant inhibition of CYP2D6 in human liver microsomes; assay type: ADME
Cytochrome P450 3A4 [27] = target: T7, Cytochrome P450 3A4; experiment: Time-dependant inhibition of CYP3A4 in human liver microsomes; assay type: ADME
[28] = target: T8, Sodium channel protein type 9 subunit alpha (Mus musculus, UniProt Q62205); experiment: Inhibition of recombinant mouse Nav1.7 expressed in HEK293 cells at -70 mV holding potential by patch clamp electrophysiology method; assay type: cell-based
T8 sequence (Q62205 whole entry): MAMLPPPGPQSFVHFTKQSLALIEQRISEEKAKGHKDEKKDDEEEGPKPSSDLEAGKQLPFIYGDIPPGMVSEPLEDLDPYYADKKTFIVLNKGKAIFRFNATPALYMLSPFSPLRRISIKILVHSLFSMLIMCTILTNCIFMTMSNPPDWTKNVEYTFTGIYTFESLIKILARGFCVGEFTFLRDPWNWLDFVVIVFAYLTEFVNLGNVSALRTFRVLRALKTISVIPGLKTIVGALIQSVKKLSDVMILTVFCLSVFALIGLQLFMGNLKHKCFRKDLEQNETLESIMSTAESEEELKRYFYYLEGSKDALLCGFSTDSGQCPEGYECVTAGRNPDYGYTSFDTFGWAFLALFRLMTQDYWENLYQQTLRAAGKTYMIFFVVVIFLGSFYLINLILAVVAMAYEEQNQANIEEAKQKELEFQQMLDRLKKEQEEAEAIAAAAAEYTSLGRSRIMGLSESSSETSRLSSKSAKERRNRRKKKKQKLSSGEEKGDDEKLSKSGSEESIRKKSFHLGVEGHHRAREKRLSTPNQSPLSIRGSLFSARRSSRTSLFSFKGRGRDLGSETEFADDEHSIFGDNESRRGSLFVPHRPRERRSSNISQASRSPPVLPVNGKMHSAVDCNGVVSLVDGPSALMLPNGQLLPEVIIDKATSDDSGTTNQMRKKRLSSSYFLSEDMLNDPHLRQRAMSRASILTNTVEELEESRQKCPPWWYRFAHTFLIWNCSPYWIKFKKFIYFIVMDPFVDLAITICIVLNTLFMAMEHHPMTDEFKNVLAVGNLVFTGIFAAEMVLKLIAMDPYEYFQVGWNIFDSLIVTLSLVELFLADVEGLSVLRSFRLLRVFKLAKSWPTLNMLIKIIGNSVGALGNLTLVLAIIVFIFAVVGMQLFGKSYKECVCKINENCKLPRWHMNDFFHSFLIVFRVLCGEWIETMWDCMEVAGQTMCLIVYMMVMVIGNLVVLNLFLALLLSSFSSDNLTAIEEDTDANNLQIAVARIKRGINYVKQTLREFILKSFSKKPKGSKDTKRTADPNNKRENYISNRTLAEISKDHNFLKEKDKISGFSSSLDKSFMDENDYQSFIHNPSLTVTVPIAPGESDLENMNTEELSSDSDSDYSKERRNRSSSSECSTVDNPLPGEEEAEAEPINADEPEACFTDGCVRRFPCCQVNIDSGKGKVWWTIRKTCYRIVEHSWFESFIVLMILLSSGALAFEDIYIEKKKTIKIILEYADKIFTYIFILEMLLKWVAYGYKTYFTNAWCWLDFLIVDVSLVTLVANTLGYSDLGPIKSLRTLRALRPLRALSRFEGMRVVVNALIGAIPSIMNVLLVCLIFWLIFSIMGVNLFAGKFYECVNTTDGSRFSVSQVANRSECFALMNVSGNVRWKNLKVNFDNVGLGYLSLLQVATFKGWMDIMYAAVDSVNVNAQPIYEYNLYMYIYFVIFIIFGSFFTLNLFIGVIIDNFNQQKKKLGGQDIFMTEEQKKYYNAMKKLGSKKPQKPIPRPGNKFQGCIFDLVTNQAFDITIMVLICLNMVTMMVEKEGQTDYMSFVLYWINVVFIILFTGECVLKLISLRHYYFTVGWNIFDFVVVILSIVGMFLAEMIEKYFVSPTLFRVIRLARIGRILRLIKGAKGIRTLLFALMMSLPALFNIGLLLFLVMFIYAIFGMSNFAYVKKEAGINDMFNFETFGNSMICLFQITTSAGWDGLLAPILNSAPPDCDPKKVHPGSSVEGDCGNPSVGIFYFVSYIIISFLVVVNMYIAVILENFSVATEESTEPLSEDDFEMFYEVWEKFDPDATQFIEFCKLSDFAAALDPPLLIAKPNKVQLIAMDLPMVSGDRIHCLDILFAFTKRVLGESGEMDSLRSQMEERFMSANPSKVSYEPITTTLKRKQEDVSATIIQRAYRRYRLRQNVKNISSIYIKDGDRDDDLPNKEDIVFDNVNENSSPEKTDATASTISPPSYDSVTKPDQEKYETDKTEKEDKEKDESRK

Mus musculus [29] = experiment: Analgesic activity in CD1 mouse model of formalin-induced nociception assessed as reduction in formalin-evoked paw flinching/licking response during second phase at 30 mg/kg, po pretreated for 30 mins followed by formalin treatment and measured during 15 to 45 mins post formalin injection; assay type: functional, organism-based
[30] = Toxicity in CD1 mouse model of formalin-induced nociception assessed as prostration or sedation at 30 mg/kg, po; assay type: organism-based; conditions: in vivo
[31] = Toxicity in CD1 mouse model of formalin-induced nociception assessed as hypothermia at 30 mg/kg, po; assay type: organism-based; conditions: in vivo
[32] = target: T8, Sodium channel protein type 9 subunit alpha; experiment: Inhibition of Nav1.7 in mouse DRG neurons at -70 mV holding potential by patch clamp electrophysiology method
[33] = Metabolic stability in mouse liver microsomes assessed as parent compound remaining at 0.5 uM after 10 mins; assay type: ADME, Microsome; conditions: read-out: Stability
[34] = Plasma concentration in CD1 mouse model of formalin-induced nociception at 3 mg/kg, po; assay type: ADME, organism-based; conditions: read-out: Cp, in vivo
[35] = Unbound plasma concentration in CD1 mouse model of formalin-induced nociception at 3 mg/kg, po; assay type: ADME, organism-based; conditions: in vivo
[36] = target: T1, Sodium channel protein type 9 subunit alpha; experiment: Inhibition of human Nav1.7 expressed in HEK293 cells after 600 secs at -60 mV holding potential by ion works barracuda population patch clamp method; assay type: cell-based
[37] = target: Sodium channel protein type 5 subunit alpha (Homo sapiens, UniProt Q14524); experiment: Inhibition of human Nav1.5 expressed in HEK293 cells after 600 secs at -50 mV holding potential by ion works barracuda population patch clamp method; assay type: cell-based

SMILES	Activity (Mus musculus [1])	concentration [2]	Cp(f) [3]	IC50 [6]	remaining at 10 min, 0.5 µM [7]	remaining at 10 min, 0.5 µM [8]	fraction unbound [10]	Papp [11]	Papp [12]	inhibition (INH) (Cytochrome P450 2B6 [16])	inhibition (INH) (Cytochrome P450 2C8 [17])	inhibition (INH) (Cytochrome P450 2C9 [18])	inhibition (INH) (Cytochrome P450 2C19 [19])	inhibition (INH) (Cytochrome P450 2D6 [20])	inhibition (INH) (Cytochrome P450 3A4 [21])	TDI (Cytochrome P450 2B6 [22])	TDI (Cytochrome P450 2C8 [23])	TDI (Cytochrome P450 2C9 [24])	TDI (Cytochrome P450 2C19 [25])	TDI (Cytochrome P450 2D6 [26])	further results
O=S(=O)(Nc1nccs1)c1cc(Cl)c(NCC23CCCN2CCC3)cc1F	inactive	1400 nM	340 nM	–	–	–	–	–	–	–	–	–	–	–	–	–	–	–	–	–	concentration [4]: 340 nM; Drug uptake(free) [5]: 340 nM
Cn1cc(-c2ccc(C(F)(F)F)cc2)c2cc(F)c(C(=O)NS(=O)(=O)C3CC3)cc21	inactive	140000 nM	490 nM	5 nM	100%	100%	0.0035	166 ×10⁻⁶ cm/s	32.3 ×10⁻⁶ cm/s	Not Active	Not Active	Not Active	Not Active	Not Active	Not Active	Not Active	Not Active	Not Active	Not Active	Not Active	fraction unbound [9]: 0.0025; Papp A→B [13]: 4.6 ×10⁻⁶ cm/s; Papp B→A [14]: 8.6 ×10⁻⁶ cm/s; efflux ratio [15]: 1.9; TDI (Cytochrome P450 3A4 [27]): Not Active; IC50 [28]: 27 nM; Activity (Mus musculus [29]): inactive; Activity [30]: Non-Toxic; Activity [31]: Non-Toxic; IC50 [32]: 5 nM
Cn1cc(-c2ccc(C(F)F)cc2)c2cc(F)c(C(=O)NS(=O)(=O)C3CC3)cc21	inactive	173000 nM	1211 nM	12 nM	93%	82%	0.007	32.5 ×10⁻⁶ cm/s	6 ×10⁻⁶ cm/s	Not Active	Not Active	Not Active	Not Active	Not Active	Not Active	Not Active	Not Active	Not Active	Not Active	Not Active	remaining at 10 min, 0.5 µM [33]: 86%; fraction unbound [9]: 0.003; Papp A→B [13]: 8.1 ×10⁻⁶ cm/s; Papp B→A [14]: 19.5 ×10⁻⁶ cm/s; efflux ratio [15]: 2.4; TDI (Cytochrome P450 3A4 [27]): Not Active; IC50 [28]: 231 nM; Activity (Mus musculus [29]): inactive; Activity [30]: Non-Toxic; Activity [31]: Non-Toxic; IC50 [32]: 12 nM
CC(C)COc1ncc(-c2nn(C)c3cc(C(=O)NS(C)(=O)=O)ccc23)cc1Cl	inactive	–	–	11 nM	100%	100%	0.002	116 ×10⁻⁶ cm/s	41.7 ×10⁻⁶ cm/s	Not Active	Not Active	Not Active	Not Active	Not Active	Not Active	Not Active	Not Active	Not Active	Not Active	Not Active	remaining at 10 min, 0.5 µM [33]: 100%; TDI (Cytochrome P450 3A4 [27]): Not Active; Activity (Mus musculus [29]): inactive; Activity [30]: Toxic; Activity [31]: Toxic; IC50 [32]: 12 nM; concentration [34]: 280 nM; Cp(f) [35]: 0.56 nM
CC(C)COc1ccc(-c2cn(C)c3cc(C(=O)NS(=O)(=O)C4CC4)c(F)cc23)cn1	inactive	132000 nM	792 nM	19 nM	100%	78%	0.006	85.1 ×10⁻⁶ cm/s	25.4 ×10⁻⁶ cm/s	Not Active	Not Active	Not Active	Not Active	Not Active	Not Active	Not Active	Not Active	Not Active	Not Active	Not Active	remaining at 10 min, 0.5 µM [33]: 98%; fraction unbound [9]: 0.024; Papp A→B [13]: 12 ×10⁻⁶ cm/s; Papp B→A [14]: 18.9 ×10⁻⁶ cm/s; efflux ratio [15]: 1.6; TDI (Cytochrome P450 3A4 [27]): Not Active; IC50 [28]: 37 nM; Activity (Mus musculus [29]): inactive; Activity [30]: Non-Toxic; Activity [31]: Non-Toxic; IC50 [32]: 24 nM
CC(C)COc1ncc(-c2cn(C)c3cc(C(=O)NS(=O)(=O)C4CC4)c(F)cc23)cc1Cl	inactive	58000 nM	116 nM	3.3 nM	100%	37%	0.002	33.5 ×10⁻⁶ cm/s	31 ×10⁻⁶ cm/s	Not Active	Not Active	Not Active	Not Active	Not Active	Not Active	Not Active	Not Active	Not Active	Not Active	Not Active	IC50 [36]: 230 nM; IC50 [37]: 5100 nM; remaining at 10 min, 0.5 µM [33]: 100%; fraction unbound [9]: < 0.001; Papp A→B [13]: 3.4 ×10⁻⁶ cm/s; Papp B→A [14]: 10.2 ×10⁻⁶ cm/s; efflux ratio [15]: 3; TDI (Cytochrome P450 3A4 [27]): Not Active; IC50 [28]: 10 nM; Activity (Mus musculus [29]): inactive; Activity [30]: Non-Toxic; Activity [31]: Non-Toxic; concentration [4]: 11000 nM
